{"source": "patent US20220054540A1", "about": "“Ferric Carboxymaltose In The Treatment Of Heart Failure And In The Treatment Of Congestion In Heart Failure” (Vifor (International) AG, priority 2018, published 2022)", "key": {"[1]": {"test_system": "ambulatory patients with NYHA class II or III CHF and iron deficiency", "test": "FAIR-HF plasma volume status (PVS) substudy: post-hoc analysis of calculated PVS and clinical congestion, IV FCM vs placebo", "type": "in vivo, human (patients)", "details": "for change from baseline in Hct / change from baseline in PVS / change from baseline in weight: mean±SD; for change from baseline in Hct: significant increase compared to placebo", "experimental": "FAIR-HF is a multi-centre, randomized, double-blind trial including 459 ambulatory patients with NYHA class II or III CHF, a left ventricular ejection fraction (LVEF) ≤40% (NYHA II) or ≤45% (NYHA III), iron deficiency (ID) as defined by a ferritin <100 ug/l or 100 to 299 ug/l with a transferrin saturation (TSAT)<20%, and a hemoglobin (Hb) level between 9.5 and 13.5 g/dl. Patients were randomized in a 2:1 ratio to intravenous (IV) iron as ferric carboxymaltose (FCM; Ferinject®) or IV placebo (saline) weekly until iron repletion (correction phase), then 4 weekly until week 24 (maintenance phase). FCM was administered in doses of 200 mg (4 mL) weekly up to iron repletion (correction phase of variable duration depending on individual iron deficit). The calculated dose was rounded to the next 100 mg iron, i.e. the final dose may be 100 mg iron depending on the individual iron deficit. After the correction phase, FCM was administered monthly in doses of 200 mg until the 24th week (maintenance phase).\nIn the placebo group, during the correction phase, patients will receive the number of normal saline injections (4 mL weekly) corresponding to the calculated total iron dose needed according to the individual iron deficit. During the maintenance phase, placebo patients will receive 4 mL normal saline monthly. Regular assessments were done at weeks 4, 12, and 24.\nThe hematocrit value (Hct or Ht) and weight at randomization were used for plasma volume status (PVS) calculations and were available in 436 (95%) patients whose data were therefore used in this post-hoc analysis.\nActual plasma volume (PV) was calculated with the following equation that was derived by curve-fitting techniques using subjects' Hct and weight compared with PV values measured with gold standard radioisotope assays:\nactual PV=([1−Hct]×[a+(b×weight [kg])])\nwhere Hct is a fraction and a=1530 in males and 864 in females, and b=41 in males and 47.9 in females.\nIdeal PV was calculated from the following well established formula:\nwhere c=39 in males and 40 in females\nRelative PVS, an index of the degree to which patients have deviated from their ideal PV, was subsequently calculated from the following equation:\nPVS=([actual PV−ideal PV]/ideal PV)×100%\nPatients were weighed and examined for signs and symptoms of congestion at randomization and at weeks 4, 12 and 24. The presence or absence of peripheral edema, pulmonary congestion (crackles, rales), and an S3 gallop (third heart sound) were recorded, as was the actual jugular venous pressure (JVP).\nData are presented as mean±SD, frequencies (%), or medians (interquartile range [IQR]). Intergroup comparisons were made using a Kruskall-Wallis analysis of variance (ANOVA), analysis of covariance (ANCOVA), Student t-test, Pearson χ2 test, or a Mann Whitney U-test as appropriate. Associations between variables were determined using logistic regression. A P-value <0.10 was used to enter and retain covariates into stepwise multivariable regression models.\nTo assess the impact of treatment assignment on PVS, comparisons of changes in PVS from baseline at 4, 12, and 24 weeks between the placebo and FCM group were evaluated by comparing the least square means at each visit from a repeated-measures model using an unstructured covariance structure and adjusting for the continuous baseline value and a visit x drug interaction. Changes over time for other variables were similarly determined."}, "[2]": {"test_system": "ambulatory patients with NYHA class II or III CHF and iron deficiency", "details": "after 24 weeks of treatment, IV FCM compared to saline; cited from earlier work"}, "[3]": {"details": "cited from earlier work"}, "[4]": {"details": "cited from earlier work", "remark": "listed apart in the source"}, "[5]": {"details": "publications, e.g. Qunibi et al. 2011; cited from earlier work"}, "[6]": {"details": "week 4, significant reduction compared to placebo"}}}
{"substance": "polynuclear iron(III)-oxyhydroxide carboxypolymaltose (carboxymaltodextrin) [FCM]", "values": [{"measurement": "peripheral edema", "setting": "[1]; FCM treatment compared to placebo (FIG. 2d)", "result": "improvement in peripheral edema"}, {"measurement": "improvement in pulmonary edema", "setting": "[1]; FCM treatment vs placebo, P=0.35", "result": "not evident"}, {"measurement": "improvement in jugular venous distension", "setting": "[1]; FCM treatment vs placebo, P=0.54", "result": "not evident"}, {"measurement": "improvement in presence of an S3 gallop rhythm", "setting": "[1]; FCM treatment vs placebo, P=1.00", "result": "not evident"}, {"measurement": "time of maximal treatment effect on PVS", "setting": "[1]; FCM vs placebo", "result": 12, "unit": "week"}, {"measurement": "change from baseline in Hct", "setting": "[1]; week 4", "result": "2 ± 4", "unit": "%"}, {"measurement": "change from baseline in PVS", "setting": "[1]; [6]", "result": "−2.5±5.9", "unit": "%"}, {"measurement": "change from baseline in weight", "setting": "[1]; [6]", "result": "-0.2 ± 2.4", "unit": "kg"}, {"measurement": "change from baseline in weight", "setting": "[1]; week 12, not significant compared to placebo", "result": "0.2 ± 3.0", "unit": "kg"}, {"measurement": "change from baseline in Hct", "setting": "[1]; week 12", "result": "3 ± 4", "unit": "%"}, {"measurement": "change from baseline in PVS", "setting": "[1]; week 12, significant reduction compared to placebo", "result": "−3.9±6.8", "unit": "%"}, {"measurement": "change from baseline in weight", "setting": "[1]; week 24, not significant compared to placebo", "result": "0.3 ± 3.2", "unit": "kg"}, {"measurement": "change from baseline in Hct", "setting": "[1]; week 24", "result": "3 ± 5", "unit": "%"}, {"measurement": "change from baseline in PVS", "setting": "[1]; week 24, significant reduction compared to placebo", "result": "−4.1±7.4", "unit": "%"}, {"measurement": "6 minute walking distance (6MWD)", "setting": "[2]", "result": "significant improvements"}, {"measurement": "NYHA class", "setting": "[2]", "result": "significant improvements"}, {"measurement": "Patient Global Assessment (PGA)", "setting": "[2]", "result": "significant improvements"}, {"measurement": "stability of the iron-carbohydrate complex", "setting": "[3]; compared with ferric gluconate and iron sucrose", "result": "more stable than ferric gluconate or iron sucrose"}, {"measurement": "pH of the complex", "setting": "[3]; nearly neutral", "result": "5.0-7.0"}, {"measurement": "dextran cross-reactivity", "setting": "[4]; in vivo", "result": "no dextran cross-reactivity"}, {"measurement": "tolerability of rapid infusion", "setting": "[4]; up to 1000 mg of elemental iron over 15 min, intravenous", "result": "well tolerated"}, {"measurement": "peripheral edema as adverse event", "setting": "[5]", "result": "one of the most commonly occurring adverse events"}]}
